Assay results as given in ChEMBL document CHEMBL5625235, “Discovery of X10g as a selective PROTAC degrader of Hsp90α protein for treating breast cancer” (Eur J Med Chem, 2023).
Active and inactive are the calls of the source. No cut-off for these calls is given here.

How the values were obtained:
MDA-MB-231 = assay: Antiproliferative activity against human MDA-MB-231 cells assessed as inhibition of cell proliferation incubated for 72 hrs by MTT assay; format: functional, cell-based; details: MDA-MB-231, 72 h
MDA-MB-468 = assay: Antiproliferative activity against human MDA-MB-468 cells assessed as inhibition of cell proliferation incubated for 72 hrs by MTT assay; format: functional, cell-based; details: MDA-MB-468, 72 h
MCF7 [1] = assay: Antiproliferative activity against human MCF7 cells assessed as inhibition of cell proliferation incubated for 72 hrs by MTT assay; format: functional, cell-based; details: MCF7, 72 h
MX1 = assay: Antiproliferative activity against human MX1 cells assessed as inhibition of cell proliferation incubated for 72 hrs by MTT assay; format: functional, cell-based; details: MX1, 72 h
[2] = target: T1, Protein cereblon/Heat shock protein HSP 90-alpha (Homo sapiens, UniProt P07900+Q96SW2); assay: PROTAC activity at CRBN/HSP90alpha in human MCF7 cells assessed as induction of HSP90alpha degradation at 0.5 uM incubated for 8 hrs by Western blot analysis; format: cell-based
[3] = target: T2, Protein cereblon/Heat shock protein HSP 90-beta (Homo sapiens) (UniProt P08238+Q96SW2); assay: PROTAC activity at CRBN/HSP90beta in human MCF7 cells assessed as induction of HSP90beta degradation at 0.5 uM incubated for 8 hrs by Western blot analysis; format: cell-based
[4] = target: Heat shock protein HSP 90-beta (Homo sapiens, UniProt P08238); assay: Inhibition of HSP90beta (unknown origin) incubated for 24 hrs by fluorescence polarization assay
[5] = target: T3, Heat shock protein HSP 90-alpha (Homo sapiens, UniProt P07900); assay: Inhibition of 6His-tagged human HSP90alpha N-terminal domain (1 to 223 residues) expressed in Escherichia coli BL21 DE3 cells incubated for 24 hrs by fluorescence polarization assay
[6] = target: T3, Heat shock protein HSP 90-alpha; assay: Induction of HSP90alpha degradation in human MCF7 cells at 0.5 uM incubated for 8 hrs by Western blot analysis; format: cell-based
[7] = target: T3, Heat shock protein HSP 90-alpha; assay: Induction of HSP90alpha degradation in human MCF7 cells at 0.5 uM incubated for 8 hrs in presence of pomalidomide by Western blot analysis; format: cell-based
4T1 [8] = assay: Antitumor activity against mouse 4T1 cells implanted in BALB/c mouse assessed as tumor growth inhibition at 50 mg/kg, ip administered twice a week and measured after 20 days relative to control; format: functional; details: 4T1, 480 h, time 20 day, read-out: TGI
4T1 [9] = assay: Antitumor activity against mouse 4T1 cells implanted in BALB/c mouse assessed as reduction in tumor weight at 50 mg/kg, ip administered twice a week and measured after 20 days; format: functional, organism-based; details: time 20.0 day
[10] = Toxicity in BALB/c mouse implanted with mouse 4T1 cells assessed as effect on body weight at 50 mg/kg, ip administered twice a week and measured after 20 days; format: organism-based; details: in vivo, 480 h, time 20 day
MCF7 [11] = assay: Potency index, ratio of AT13387 IC50 to test compound IC50 for antiproliferative activity against human MCF7 cells assessed as inhibition of cell proliferation incubated for 72 hrs by MTT assay; format: functional
[12] = target: T1, Protein cereblon/Heat shock protein HSP 90-alpha; assay: PROTAC activity at CRBN/HSP90alpha in human MCF7 cells assessed as induction of HSP90alpha degradation incubated for 8 hrs by Western blot analysis; format: cell-based
[13] = target: T1, Protein cereblon/Heat shock protein HSP 90-alpha; assay: PROTAC activity at CRBN/HSP90alpha in human MCF7 cells assessed as induction of HSP90alpha degradation by measuring maximal efficacy at 0.1 to 5 uM incubated for 8 hrs by Western blot analysis relative to control; format: cell-based; details: dose 0.1-5 µM
[14] = target: T1, Protein cereblon/Heat shock protein HSP 90-alpha; assay: PROTAC activity at CRBN/HSP90alpha in human MCF7 cells assessed as induction of HSP90alpha degradation by measuring maximal efficacy at high concentration incubated for 8 hrs by Western blot analysis; format: cell-based
[15] = target: T1, Protein cereblon/Heat shock protein HSP 90-alpha; assay: PROTAC activity at CRBN/HSP90alpha in human MCF7 cells assessed as induction of survivin degradation at 0.5 uM incubated for 8 hrs by Western blot analysis; format: cell-based
[16] = target: T2, Protein cereblon/Heat shock protein HSP 90-beta (Homo sapiens); assay: PROTAC activity at CRBN/HSP90beta in human MCF7 cells assessed as induction of CDK4 degradation at 0.5 uM incubated for 8 hrs by Western blot analysis; format: cell-based
[17] = target: T1, Protein cereblon/Heat shock protein HSP 90-alpha; assay: Binding affinity to CRBN/HSP90alpha (unknown origin) assessed as ternary complex formation; format: protein assay
[18] = target: T1, Protein cereblon/Heat shock protein HSP 90-alpha; assay: PROTAC activity at CRBN/HSP90alpha in human MCF7 cells assessed as induction of HSP90alpha degradation at 0.5 uM incubated for 8 hrs in presence of AT13387 by Western blot analysis; format: cell-based
[19] = target: T1, Protein cereblon/Heat shock protein HSP 90-alpha; assay: PROTAC activity at CRBN/HSP90alpha in human MCF7 cells assessed as induction of HSP90alpha degradation at 0.5 uM incubated for 8 hrs in presence of pomalidomide by Western blot analysis; format: cell-based
[20] = target: T1, Protein cereblon/Heat shock protein HSP 90-alpha; assay: PROTAC activity at CRBN/HSP90alpha in human MCF7 cells assessed as induction of HSP90alpha degradation at 0.5 uM incubated for 8 hrs in presence of MG132 by Western blot analysis; format: cell-based
[21] = target: T1, Protein cereblon/Heat shock protein HSP 90-alpha; assay: PROTAC activity at CRBN/HSP90alpha in human MCF7 cells assessed as induction of HSP90alpha degradation at 0.5 uM incubated for 8 hrs in presence of MLN4924 by Western blot analysis; format: cell-based
[22] = Tmax in rat at 15 mg/kg, ip administered as single dose and measured at 5 to 480 mins by LC-MS analysis; format: ADME, organism-based; details: in vivo, time 5-480 min
[23] = Cmax in rat at 15 mg/kg, ip administered as single dose and measured at 5 to 480 mins by LC-MS analysis; format: ADME, organism-based; details: in vivo, time 5-480 min
[24] = AUCall in rat at 15 mg/kg, ip administered as single dose and measured at 5 to 480 mins by LC-MS analysis; format: ADME, organism-based; details: in vivo, time 5-480 min
[25] = AUC(0 to infinity) in rat at 15 mg/kg, ip administered as single dose and measured at 5 to 480 mins by LC-MS analysis; format: ADME, organism-based; details: in vivo, time 5-480 min
[26] = Half-life in rat at 15 mg/kg, ip administered as single dose and measured at 5 to 480 mins by LC-MS analysis; format: ADME, organism-based; details: in vivo, time 5-480 min
4T1 [27] = assay: Antitumor activity against mouse 4T1 cells implanted in BALB/c mouse assessed as tumor growth inhibition at 60 mg/kg, ip administered daily for 20 days relative to control; format: functional; details: 4T1, 480 h, time 20 day, read-out: TGI
4T1 [28] = assay: Antitumor activity against mouse 4T1 cells implanted in BALB/c mouse assessed as reduction in tumor weight at 60 mg/kg, ip administered daily for 20 days; format: functional, organism-based; details: time 20.0 day
[29] = Toxicity in BALB/c mouse implanted with mouse 4T1 cells assessed as effect on body weight at 60 mg/kg, ip administered daily for 20 days; format: organism-based; details: in vivo, 480 h, time 20 day
[30] = Toxicity in BALB/c mouse implanted with mouse 4T1 cells assessed as mortality at 60 mg/kg, ip administered daily for 20 days; format: organism-based; details: in vivo, 480 h, time 20 day

Sequence of Heat shock protein HSP 90-beta (P08238 whole entry, the tested form may be a part): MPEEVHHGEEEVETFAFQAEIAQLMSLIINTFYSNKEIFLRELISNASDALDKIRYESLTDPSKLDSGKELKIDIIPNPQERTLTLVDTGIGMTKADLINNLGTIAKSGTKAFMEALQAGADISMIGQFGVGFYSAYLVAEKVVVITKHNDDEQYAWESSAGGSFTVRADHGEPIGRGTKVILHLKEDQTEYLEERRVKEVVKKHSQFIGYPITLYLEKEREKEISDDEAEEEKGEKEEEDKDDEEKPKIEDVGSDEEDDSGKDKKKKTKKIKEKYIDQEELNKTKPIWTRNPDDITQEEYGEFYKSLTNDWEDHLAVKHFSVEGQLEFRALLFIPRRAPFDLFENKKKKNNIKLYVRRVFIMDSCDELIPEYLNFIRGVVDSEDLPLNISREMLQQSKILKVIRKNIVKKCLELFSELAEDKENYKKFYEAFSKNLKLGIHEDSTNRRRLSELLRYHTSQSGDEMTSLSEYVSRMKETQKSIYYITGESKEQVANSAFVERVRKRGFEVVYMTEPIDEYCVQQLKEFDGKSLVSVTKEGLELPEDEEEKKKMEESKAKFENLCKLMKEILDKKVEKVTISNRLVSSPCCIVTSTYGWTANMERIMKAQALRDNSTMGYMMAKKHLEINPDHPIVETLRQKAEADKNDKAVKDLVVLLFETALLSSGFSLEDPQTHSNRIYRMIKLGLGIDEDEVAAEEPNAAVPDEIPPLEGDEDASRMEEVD

Compound	IC50 (MDA-MB-231) [µM]	IC50 (MDA-MB-468) [µM]	IC50 (MCF7 [1]) [µM]	Activity [2]	Activity [3]	IC50 (MX1) [µM]	further results
CC(C)c1cc(C(=O)N2Cc3ccc(CN4CCN(CCCCCCCC(=O)Nc5cccc6c5C(=O)N(C5CCC(=O)NC5=O)C6=O)CC4)cc3C2)c(O)cc1O (centres undefined)	62.8	30.6	6.03	inactive	inactive	4.94	–
CC(C)c1cc(C(=O)N2Cc3ccc(CN4CCN(CCCCC(=O)Nc5cccc6c5C(=O)N(C5CCC(=O)NC5=O)C6=O)CC4)cc3C2)c(O)cc1O (centres undefined)	18.8	5.27	4.28	inactive	inactive	6.78	–
CC(C)c1cc(C(=O)N2Cc3ccccc3C2)c(O)cc1O	–	–	–	–	–	–	IC50 [4]: 0.004 µM
CC(C)c1cc(C(=O)N2Cc3ccccc3C2)ccc1O	–	–	–	–	–	–	IC50 [5]: 0.41 µM; IC50 [4]: 4.47 µM
Nc1cccc2c1C(=O)N(C1CCC(=O)NC1=O)C2=O (centres undefined) [POMALIDOMIDE]	> 100	> 100	> 100	–	–	> 100	Activity [6]: inactive
CC(C)c1cc(C(=O)N2Cc3ccc(CN4CCN(CCCCCC(=O)Nc5cccc6c5C(=O)N(C5CCC(=O)NC5=O)C6=O)CC4)cc3C2)ccc1O (centres undefined)	71.8	30.1	30.5	–	–	34.6	–
CC(C)c1cc(C(=O)N2Cc3ccc(CN4CCN(CCC(=O)Nc5cccc6c5C(=O)N(C5CCC(=O)NC5=O)C6=O)CC4)cc3C2)ccc1O (centres undefined)	> 100	> 100	27.1	–	–	> 100	–
CC(C)c1cc(C(=O)N2Cc3ccc(CN4CCN(CCCCCCCC(=O)Nc5cccc6c5C(=O)N(C5CCC(=O)NC5=O)C6=O)CC4)cc3C2)ccc1O (centres undefined)	> 100	35.9	18.5	–	–	63	–
Nc1cccc2c1CN(C1CCC(=O)NC1=O)C2=O (centres undefined) [LENALIDOMIDE]	> 100	> 100	> 100	–	–	> 100	–
CC(C)c1ccc(O)c(C(=O)N2Cc3ccccc3C2)c1	–	–	–	–	–	–	IC50 [5]: 3.21 µM; IC50 [4]: 1.6 µM
CC(C)c1cc(C(=O)N2Cc3ccc(CN4CCN(CCCCCCC(=O)Nc5cccc6c5C(=O)N(C5CCC(=O)NC5=O)C6=O)CC4)cc3C2)ccc1O (centres undefined)	51.5	16.5	8.93	Active	inactive	12	DC50 [12]: 0.295 µM; Emax [13]: 66.4%; Activity [14]: inactive; Activity [15]: Active; Activity [16]: inactive; Activity [17]: Active; Activity [18]: inactive; Activity [19]: inactive; Activity [20]: inactive; Activity [21]: inactive; Tmax [22]: 0.6 h; Cmax [23]: 302 ng/mL; AUC [24]: 703 ng·h/mL; AUC(0-inf) [25]: 758 ng·h/mL; half-life [26]: 2.5 h; inhibition in vivo at 60 mg/kg (4T1 [27]): 54%; Activity (4T1 [28]): Active; Activity [29]: Non-Toxic; Activity [30]: Non-Toxic
CC(C)c1cc(C(=O)N2Cc3ccc(CN4CCN(CCCC(=O)Nc5cccc6c5C(=O)N(C5CCC(=O)NC5=O)C6=O)CC4)cc3C2)ccc1O (centres undefined)	72.8	41.6	7.5	–	–	40.8	–
CC(C)c1cc(C(=O)N2Cc3ccc(CN4CCN(CCCCC(=O)Nc5cccc6c5C(=O)N(C5CCC(=O)NC5=O)C6=O)CC4)cc3C2)ccc1O (centres undefined)	94.2	87.1	48.2	–	–	76.6	–

Second part, led by results:

IC50 (MDA-MB-231) [µM]	IC50 (MDA-MB-468) [µM]	IC50 (MCF7 [1]) [µM]	Activity [2]	Activity [3]	Compound	IC50 (MX1) [µM]	further results
12.1	3.67	0.92	inactive	inactive	CC(C)c1cc(C(=O)N2Cc3ccc(CN4CCN(CCCCCCC(=O)Nc5cccc6c5C(=O)N(C5CCC(=O)NC5=O)C6=O)CC4)cc3C2)c(O)cc1O (centres undefined)	0.31	–
7.87	25.8	3.42	inactive	inactive	CC(C)c1cc(C(=O)N2Cc3ccc(CN4CCN(C(=O)CCCNc5cccc6c5CN(C5CCC(=O)NC5=O)C6=O)CC4)cc3C2)c(O)cc1O (centres undefined)	1.19	–
4.3	13.2	1.3	inactive	inactive	CC(C)c1cc(C(=O)N2Cc3ccc(CN4CCN(C(=O)CCCCNc5cccc6c5CN(C5CCC(=O)NC5=O)C6=O)CC4)cc3C2)c(O)cc1O (centres undefined)	2.02	–
5.11	27.2	0.58	inactive	inactive	CC(C)c1cc(C(=O)N2Cc3ccc(CN4CCN(CCCCCC(=O)Nc5cccc6c5C(=O)N(C5CCC(=O)NC5=O)C6=O)CC4)cc3C2)c(O)cc1O (centres undefined)	0.03	–
2.6	3.31	0.84	–	–	CC(C)c1cc(C(=O)N2Cc3ccc(CN4CCN(C)CC4)cc3C2)c(O)cc1O [ONALESPIB]	0.5	Activity [6]: inactive; Activity [7]: inactive; inhibition in vivo at 50 mg/kg (4T1 [8]): 43.2%; Activity (4T1 [9]): Active; Activity [10]: Toxic
7.69	5.1	2.03	inactive	inactive	CC(C)c1cc(C(=O)N2Cc3ccc(CN4CCN(C(=O)CNc5cccc6c5CN(C5CCC(=O)NC5=O)C6=O)CC4)cc3C2)c(O)cc1O (centres undefined)	3.46	–
2.04	3.03	0.02	inactive	inactive	CC(C)c1cc(C(=O)N2Cc3ccc(CN4CCN(CCCC(=O)Nc5cccc6c5C(=O)N(C5CCC(=O)NC5=O)C6=O)CC4)cc3C2)c(O)cc1O (centres undefined)	0.22	–
6.8	6.19	0.03	inactive	inactive	CC(C)c1cc(C(=O)N2Cc3ccc(CN4CCN(CCC(=O)Nc5cccc6c5C(=O)N(C5CCC(=O)NC5=O)C6=O)CC4)cc3C2)c(O)cc1O (centres undefined)	0.09	Ratio IC50 (MCF7 [11]): ~35
4.79	0.75	4.47	inactive	inactive	CC(C)c1cc(C(=O)N2Cc3ccc(CN4CCN(C(=O)CCCCCNc5cccc6c5CN(C5CCC(=O)NC5=O)C6=O)CC4)cc3C2)c(O)cc1O (centres undefined)	1.93	–
